# Literature values as cited in US20240091144A1, “MULTI-LAYER ORAL THIN FILM” (LTS Lohmann Therapie-Systeme AG, priority 2021, published 2024).
# Experiments:
# [1] = compared with (R)-ketamine
# [2] = at 20° C.
Compound,analgesic and anaesthetic potency relative to the (R) form [1],pKs [2]
"CNC1(c2ccccc2Cl)CCCCC1=O (racemic) [(S)-ketamine, (S)-(±)-2-(2-chlorophenyl)-2-(methylamino)cyclohexan-1-one]",approximately three times higher,–
"NC(CO)(CO)CO [TRIS, tris(hydroxymethyl)aminomethane]",–,8.2
